# According to ChEMBL document CHEMBL1144375, “Solid-phase synthesis of naphthylamidines as factor VIIa/tissue factor inhibitors” (Bioorg Med Chem Lett, 2005):
# How the values were obtained:
# Prothrombin = Prothrombin (Homo sapiens, UniProt P00734); test: Inhibition constant towards human thrombin
# Coagulation factor X = Coagulation factor X (Homo sapiens, UniProt P00742); test: Inhibition constant towards human coagulation factor X
# Coagulation factor VII = biological target: T1, Coagulation factor VII (Homo sapiens, UniProt P08709); test: Inhibition constant towards human coagulation factor VII
# T1 sequence (P08709 whole entry): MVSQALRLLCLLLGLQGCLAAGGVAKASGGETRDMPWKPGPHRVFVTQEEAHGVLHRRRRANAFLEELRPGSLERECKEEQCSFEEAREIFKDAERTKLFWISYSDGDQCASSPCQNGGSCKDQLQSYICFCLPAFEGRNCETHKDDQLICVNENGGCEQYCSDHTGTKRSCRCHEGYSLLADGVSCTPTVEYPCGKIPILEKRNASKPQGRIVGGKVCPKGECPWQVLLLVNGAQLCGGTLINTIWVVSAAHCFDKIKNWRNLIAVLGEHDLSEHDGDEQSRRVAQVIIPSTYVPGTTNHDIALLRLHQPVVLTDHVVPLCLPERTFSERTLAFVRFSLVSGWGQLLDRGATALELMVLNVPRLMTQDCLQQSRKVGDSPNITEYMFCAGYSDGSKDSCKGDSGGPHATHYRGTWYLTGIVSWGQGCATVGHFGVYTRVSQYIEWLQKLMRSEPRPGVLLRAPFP
# Serine protease 1 = biological target: T2, Serine protease 1 (Bos taurus, UniProt P00760); test: Inhibition constant towards bovine trypsin
# T2 sequence (P00760 whole entry): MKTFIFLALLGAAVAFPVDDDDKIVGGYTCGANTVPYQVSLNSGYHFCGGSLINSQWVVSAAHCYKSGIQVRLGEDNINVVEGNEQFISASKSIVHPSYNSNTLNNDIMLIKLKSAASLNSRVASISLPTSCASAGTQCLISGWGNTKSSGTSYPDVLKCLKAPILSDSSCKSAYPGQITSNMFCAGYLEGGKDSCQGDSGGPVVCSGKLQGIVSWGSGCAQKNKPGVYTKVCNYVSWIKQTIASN
# Chain of Coagulation factor X (P00742 41-179 limits assumed): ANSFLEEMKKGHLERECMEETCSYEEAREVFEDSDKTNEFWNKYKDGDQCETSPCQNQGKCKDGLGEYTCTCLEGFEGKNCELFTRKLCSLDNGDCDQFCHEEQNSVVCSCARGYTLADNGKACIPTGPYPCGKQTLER
# Chain of Coagulation factor X (P00742 235-488 limits assumed): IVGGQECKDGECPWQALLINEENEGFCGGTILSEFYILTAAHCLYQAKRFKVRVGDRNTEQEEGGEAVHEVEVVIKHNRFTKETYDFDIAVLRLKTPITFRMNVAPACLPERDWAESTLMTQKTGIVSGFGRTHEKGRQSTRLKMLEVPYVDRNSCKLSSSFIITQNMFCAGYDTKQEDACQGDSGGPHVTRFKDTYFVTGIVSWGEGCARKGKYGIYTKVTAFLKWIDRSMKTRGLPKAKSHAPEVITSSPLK
Structure (SMILES),Ki (Prothrombin),Ki (Coagulation factor X),Ki (Coagulation factor VII),Ki (Serine protease 1)
COc1ccc(CCN(Cc2ccc3ccc(C(=N)N)cc3c2)C(=O)c2cccc3ccccc23)cc1OC,2.51 µM,0.417 µM,0.133 µM,0.105 µM
N=C(N)c1ccc2ccc(CN(CCc3cnc[nH]3)C(=O)c3cccc4ccccc34)cc2c1,> 5 µM,0.264 µM,0.305 µM,0.378 µM
CC(C)CCN(Cc1ccc2ccc(C(=N)N)cc2c1)C(=O)c1cccc2ccccc12,1.16 µM,0.262 µM,0.093 µM,0.698 µM
N=C(N)c1ccc2ccc(CN(CCCN3CCOCC3)C(=O)c3cccc4ccccc34)cc2c1,> 5 µM,0.442 µM,0.121 µM,0.378 µM
CN1CCN(CCCN(Cc2ccc3ccc(C(=N)N)cc3c2)C(=O)c2cccc3ccccc23)CC1,0.5 µM,0.136 µM,1.31 µM,0.5 µM
CC(C)CCN(Cc1ccc2ccc(C(=N)N)cc2c1)C(=O)c1ccc2ccccc2c1,0.486 µM,0.512 µM,0.783 µM,0.46 µM
N=C(N)c1ccc2ccc(CN(CCC[n+]3cc[nH]c3)C(=O)c3cccc4ccccc34)cc2c1,> 5 µM,0.731 µM,0.282 µM,0.752 µM
N=C(N)c1ccc2ccc(CN(CCc3ccccn3)C(=O)c3cccc4ccccc34)cc2c1,4.76 µM,0.104 µM,0.195 µM,0.299 µM
N=C(N)c1ccc2ccc(CN(CCc3ccc(F)cc3)C(=O)c3cccc4ccccc34)cc2c1,1.68 µM,0.04 µM,0.194 µM,0.501 µM
"CC(C)CC(C(=O)O)N(Cc1ccc2ccc(C(=N)N)cc2c1)C(=O)c1cccc2ccccc12 (single isomer, unassigned)",> 5 µM,> 5 µM,1.01 µM,1.61 µM
CN1CCCC1CCN(Cc1ccc2ccc(C(=N)N)cc2c1)C(=O)c1cccc2ccccc12 (configuration not stated),> 5 µM,0.111 µM,0.142 µM,0.433 µM
N=C(N)c1ccc2ccc(CN(CCCc3ccccc3)C(=O)c3cccc4ccccc34)cc2c1,1.2 µM,0.632 µM,0.207 µM,0.925 µM
CC1CCCCN1CCCN(Cc1ccc2ccc(C(=N)N)cc2c1)C(=O)c1cccc2ccccc12 (configuration not stated),> 5 µM,0.137 µM,0.646 µM,0.367 µM
